Results taken from patent publication US4349546A, “D-Allose derivative and preparation method therefor” (Wakamoto Pharmaceutical Co., Ltd., priority 1980, dated 1982).

What was measured:
[1] = system: Lewis lung carcinoma cells; experiment: Test of therapeutical effects on Lewis lung carcinoma (Test Example 3); type: in vivo, BDF mice; conditions: for Number of survivals: 60 days
From the text: (1) Test animals: About 6-week old BDF mice each weighing 22±1 g; one group comprising 7 male mice.
5×10^5 Lewis lung carcinoma cells per mouse were implanted under the skin of each mouse. […] The rate of apothanasia and number of survivals after 60 days were examined.
*"day 1-9" in the column of "Method of Administration" indicates
continuous administration once/day for 9 days subsequently to "day 1".

[2] = system: leukemia L-1210, P 388, Lewis lung carcinoma, β-16 melanoma and mouse lung autotumor; experiment: Antitumor effect, overall statement of the patent; type: in vivo, warm-blooded animals; mice
[3] = Toxicity tests (LD50); conditions: mouse, in vivo, DDY male mice
Experimental: CNUA dissolved in isotonic sodium chloride solution was given to DDY male mice each weighing 20 to 22.5 g by intraperitoneal administration, intravenous administration and peroral administration, and LD50 values were determined.

[4] = system: lung autotumor; experiment: Inhibition of mouse lung autotumor induced by ethylnitrosourea (Test Example 5); type: in vivo, DDY mice
Experimental: 100 mg/kg of ethylnitrosourea was given intraperitoneally to DDY mice 3 to 4 days prior to delivery. After delivery, mice born with lung autotumor were used as the test animals. One group consisted of 10 mice.
Four weeks after birth, a given amount of CNUA was administered in two ways, i.e., intravenous administration and peroral administration at predetermined times. Nine weeks after, the area of the tumor of each mouse was measued and the inhibition rate (%) was calculated.

[5] = system: Leukemia P-388 cells; experiment: Antileukemia test, P-388 (Test Example 2); type: in vivo, CDF mice; conditions: for ILS (rate of apothanasia): 24 hours after implantation; for Number of survivals: 60 days
Experimental: (1) Test animals: The same animals as in Test 1.
1×10^5 Leukemia P-388 cells per mouse were implanted into the abdomen of each mouse. After 24 hours, a given amount of CNUA dissolved in isotonic sodium chloride solution was administered to the mice. The rate of apothanasia (%) and number of survivals after 60 days were examined.

[6] = system: Leukemia L-1210 cells; experiment: Antileukemia test, L-1210 (Test Example 1); type: in vivo, CDF mice; conditions: for Number of survivals: 60 days
Experimental: (1) Test animals: About 6-week old CDF mice each weighing 22±1 g; one group comprising 7 male mice.
1×10^5 Leukemia L-1210 cells per mouse were implanted into the abdomen of each mouse. After 24 hours, a given amount of CNUA dissolved in isotonic sodium chloride solution was administered to the mice in through three different methods, i.e. intraperitoneal administration, intravenous administration and peroral administration. The rate of apothanacia (%) and number of survivals after 60 days were examined.
^a Symbols in the column of "Method of Administration" have the
ip: Intraperitoneal administration,
iv: Intravenous administration,
po: Peroral administration,
day 1: A given amount of CNUA was administered once 24 hours after the
day 1-3: Continuous administration once a day for three days subsequently
^b Rate of apothanasia % (ILS) was calculated according to the
^c Number of survivals means the number of mice which survived for 60
days or longer in the group consisting of the 7 mice tested.

[7] = system: β-16 melanoma cells; experiment: Test of therapeutical effects on melanoma (Test Example 4); type: in vivo, BDF mice; conditions: for Number of survivals: 60 days

In the case of `O=NN(CCCl)C(=O)N[C@@H]1[C@H](O)[C@@H](CO)OC(O)[C@@H]1O` (stereo partly drawn) [CNUA, 3-[3-(2-chloroethyl)-3-nitrosoureido]-3-deoxy-D-allose], the “ILS (rate of apothanasia)” value ([1]; 2.23 mg/kg/day, ip, day 1-9) is reported as 4%, the “ILS (rate of apothanasia)” value ([1]; 4.45 mg/kg/day, ip, day 1-9) is reported as 21% and the “ILS (rate of apothanasia)” value ([1]; 5 mg/kg/day, ip, day 1) is reported as 0%. The “ILS (rate of apothanasia)” value ([1]; 6.67 mg/kg/day, ip, day 1-9) was 29%, the “ILS (rate of apothanasia)” value ([1]; 10 mg/kg/day, ip, day 1) was 0% and the “ILS (rate of apothanasia)” value ([1]; 15 mg/kg/day, iv, day 1) was 35%. For the same compound, the “ILS (rate of apothanasia)” value ([1]; 20 mg/kg/day, ip, day 1) was 68%, the “ILS (rate of apothanasia)” value ([1]; 30 mg/kg/day, iv, day 1) was 80% and the “ILS (rate of apothanasia)” value ([1]; 40 mg/kg/day, ip, day 1) was over 172%. The “ILS (rate of apothanasia)” value ([1]; 40 mg/kg/day, iv, day 1) was over 200%, the “ILS (rate of apothanasia)” value ([1]; 50 mg/kg/day, iv, day 1) was over 200% and the Number of survivals ([1]; 2.23 mg/kg/day, ip, day 1-9) was 0/7. For the same compound, the Number of survivals ([1]; 4.45 mg/kg/day, ip, day 1-9) was 1/7, the Number of survivals ([1]; 5 mg/kg/day, ip, day 1) was 0/7 and the Number of survivals ([1]; 6.67 mg/kg/day, ip, day 1-9) was 0/7. For the same compound, the Number of survivals ([1]; 10 mg/kg/day, ip, day 1) was 0/7, the Number of survivals ([1]; 15 mg/kg/day, iv, day 1) was 0/7 and the Number of survivals ([1]; 20 mg/kg/day, ip, day 1) was 2/7. The Number of survivals ([1]; 30 mg/kg/day, iv, day 1) was 1/7, the Number of survivals ([1]; 40 mg/kg/day, ip, day 1) was 6/7 and the Number of survivals ([1]; 40 mg/kg/day, iv, day 1) was 6/7. For the same compound, the Number of survivals ([1]; 50 mg/kg/day, iv, day 1) was 5/7, the antitumor effects [2] was “powerful antitumor effects” and the LD50 ([3]; ip) was 65.5 mg/kg. It also gave an LD50 ([3]; iv) of 80 mg/kg, an LD50 ([3]; po) of 550 mg/kg and an Inhibition rate ([4]; iv, 5 weeks after birth, 40 × 1 mg/kg) of 37.2%. For the same compound, the “Area of tumor (± S.E.)” value ([4]; iv, 5 weeks after birth, 40 × 1 mg/kg, p < 0.05, control 1.45 ± 0.30) was 0.91 ± 0.81 mm^2, the Inhibition rate ([4]; iv, 5.6 weeks after birth, 40 × 2 mg/kg) was 49.2% and the “Area of tumor (± S.E.)” value ([4]; iv, 5.6 weeks after birth, 40 × 2 mg/kg, p < 0.01, control 1.45 ± 0.30) was 0.75 ± 0.22 mm^2. The Inhibition rate ([4]; iv, 5.7 weeks after birth, 40 × 2 mg/kg) was 46.5%, the “Area of tumor (± S.E.)” value ([4]; iv, 5.7 weeks after birth, 40 × 2 mg/kg, p < 0.01, control 1.45 ± 0.30) was 0.79 ± 0.31 mm^2 and the Inhibition rate ([4]; po, 5,6,7,8 weeks after birth, 133 × 4 mg/kg) was 44.7%. For the same compound, the “Area of tumor (± S.E.)” value ([4]; po, 5,6,7,8 weeks after birth, 133 × 4 mg/kg, p < 0.01, control 1.41 ± 0.44) was 0.78 ± 0.22 mm^2, the Inhibition rate ([4]; po, 5,6,7,8 weeks after birth, 200 × 4 mg/kg) was 44.7% and the “Area of tumor (± S.E.)” value ([4]; po, 5,6,7,8 weeks after birth, 200 × 4 mg/kg, p < 0.01, control 1.41 ± 0.44) was 0.78 ± 0.16 mm^2. The Inhibition rate ([4]; po, 5,6,7,8 weeks after birth, 267 × 4 mg/kg) was 61.0%, the “Area of tumor (± S.E.)” value ([4]; po, 5,6,7,8 weeks after birth, 267 × 4 mg/kg, p < 0.01, control 1.41 ± 0.44) was 0.55 ± 0.18 mm^2 and the Inhibition rate ([4]; po, 5,6,7,8 weeks after birth, 333 × 4 mg/kg) was 53.2%. For the same compound, the “Area of tumor (± S.E.)” value ([4]; po, 5,6,7,8 weeks after birth, 333 × 4 mg/kg, p < 0.01, control 1.41 ± 0.44) was 0.66 ± 0.14 mm^2, the “ILS (rate of apothanasia)” value ([5]; 3.75 mg/kg/day) was 50% and the “ILS (rate of apothanasia)” value ([5]; 7.5 mg/kg/day) was 90%. The “ILS (rate of apothanasia)” value ([5]; 15 mg/kg/day) was 240%, the “ILS (rate of apothanasia)” value ([5]; 30 mg/kg/day) was over 500% and the “ILS (rate of apothanasia)” value ([5]; 45 mg/kg/day) was over 500%. The “ILS (rate of apothanasia)” value ([5]; 60 mg/kg/day) was over 500%, the Number of survivals ([5]; 3.75 mg/kg/day) was 0/7 and the Number of survivals ([5]; 7.5 mg/kg/day) was 0/7. The Number of survivals ([5]; 15 mg/kg/day) was 3/7, the Number of survivals ([5]; 30 mg/kg/day) was 5/7 and the Number of survivals ([5]; 45 mg/kg/day) was 7/7. For the same compound, the Number of survivals ([5]; 60 mg/kg/day) was 6/7, the “ILS (rate of apothanasia)” value ([6]; 5 mg/kg/day, iv, day 1) was 29% and the “ILS (rate of apothanasia)” value ([6]; 10 mg/kg/day, iv, day 1) was 43%. For the same compound, the “ILS (rate of apothanasia)” value ([6]; 11.3 mg/kg/day, ip, day 1) was 86%, the “ILS (rate of apothanasia)” value ([6]; 11.3 mg/kg/day, ip, day 1-3) was 143% and the “ILS (rate of apothanasia)” value ([6]; 20 mg/kg/day, iv, day 1) was 86%. For the same compound, the “ILS (rate of apothanasia)” value ([6]; 22.5 mg/kg/day, ip, day 1) was 157%, the “ILS (rate of apothanasia)” value ([6]; 22.5 mg/kg/day, ip, day 1-3) was over 757% and the “ILS (rate of apothanasia)” value ([6]; 40 mg/kg/day, iv, day 1) was over 757%. For the same compound, the “ILS (rate of apothanasia)” value ([6]; 45 mg/kg/day, ip, day 1) was over 757%, the “ILS (rate of apothanasia)” value ([6]; 45 mg/kg/day, ip, day 1-3) was over 757% and the “ILS (rate of apothanasia)” value ([6]; 50 mg/kg/day, iv, day 1) was 400%. For the same compound, the “ILS (rate of apothanasia)” value ([6]; 60 mg/kg/day, ip, day 1) was over 757%, the “ILS (rate of apothanasia)” value ([6]; 60 mg/kg/day, ip, day 1-3) was over 757% and the “ILS (rate of apothanasia)” value ([6]; 100 mg/kg/day, po, day 1) was 86%. For the same compound, the “ILS (rate of apothanasia)” value ([6]; 200 mg/kg/day, po, day 1) was 100%, the “ILS (rate of apothanasia)” value ([6]; 300 mg/kg/day, po, day 1) was 100% and the “ILS (rate of apothanasia)” value ([6]; 400 mg/kg/day, po, day 1) was 57%. For the same compound, the Number of survivals ([6]; 5 mg/kg/day, iv, day 1) was 0/7, the Number of survivals ([6]; 10 mg/kg/day, iv, day 1) was 0/7 and the Number of survivals ([6]; 11.3 mg/kg/day, ip, day 1) was 1/7. The Number of survivals ([6]; 11.3 mg/kg/day, ip, day 1-3) was 1/7, the Number of survivals ([6]; 20 mg/kg/day, iv, day 1) was 1/7 and the Number of survivals ([6]; 22.5 mg/kg/day, ip, day 1) was 3/7. The Number of survivals ([6]; 22.5 mg/kg/day, ip, day 1-3) was 5/7, the Number of survivals ([6]; 40 mg/kg/day, iv, day 1) was 4/7 and the Number of survivals ([6]; 45 mg/kg/day, ip, day 1) was 7/7. For the same compound, the Number of survivals ([6]; 45 mg/kg/day, ip, day 1-3) was 5/7, the Number of survivals ([6]; 50 mg/kg/day, iv, day 1) was 2/7 and the Number of survivals ([6]; 60 mg/kg/day, ip, day 1) was 4/7. For the same compound, the Number of survivals ([6]; 60 mg/kg/day, ip, day 1-3) was 4/7, the Number of survivals ([6]; 100 mg/kg/day, po, day 1) was 0/7 and the Number of survivals ([6]; 200 mg/kg/day, po, day 1) was 3/7. For the same compound, the Number of survivals ([6]; 300 mg/kg/day, po, day 1) was 2/7, the Number of survivals ([6]; 400 mg/kg/day, po, day 1) was 2/7 and the “ILS (rate of apothanasia)” value ([7]; 1.12 mg/kg/day, day 1-9, ip) was 10%. The “ILS (rate of apothanasia)” value ([7]; 2.23 mg/kg/day, day 1-9, ip) was 25%, the “ILS (rate of apothanasia)” value ([7]; 4.45 mg/kg/day, day 1-9, ip) was 30% and the “ILS (rate of apothanasia)” value ([7]; 5 mg/kg/day, day 1, ip) was 0%. For the same compound, the “ILS (rate of apothanasia)” value ([7]; 6.67 mg/kg/day, day 1-9, ip) was 35%, the “ILS (rate of apothanasia)” value ([7]; 10 mg/kg/day, day 1, ip) was 16% and the “ILS (rate of apothanasia)” value ([7]; 20 mg/kg/day, day 1, ip) was 48%. The “ILS (rate of apothanasia)” value ([7]; 20 mg/kg/day, day 1, iv) was 65%, the “ILS (rate of apothanasia)” value ([7]; 40 mg/kg/day, day 1, ip) was 60% and the “ILS (rate of apothanasia)” value ([7]; 40 mg/kg/day, day 1, iv) was 155%. For the same compound, the “ILS (rate of apothanasia)” value ([7]; 60 mg/kg/day, day 1, iv) was 35%, the Number of survivals ([7]; 1.12 mg/kg/day, day 1-9, ip) was 0/7 and the Number of survivals ([7]; 2.23 mg/kg/day, day 1-9, ip) was 0/7. For the same compound, the Number of survivals ([7]; 4.45 mg/kg/day, day 1-9, ip) was 0/7, the Number of survivals ([7]; 5 mg/kg/day, day 1, ip) was 0/7 and the Number of survivals ([7]; 6.67 mg/kg/day, day 1-9, ip) was 0/7. The Number of survivals ([7]; 10 mg/kg/day, day 1, ip) was 0/7, the Number of survivals ([7]; 20 mg/kg/day, day 1, ip) was 1/7 and the Number of survivals ([7]; 20 mg/kg/day, day 1, iv) was 1/7. The Number of survivals ([7]; 40 mg/kg/day, day 1, ip) was 2/7, the Number of survivals ([7]; 40 mg/kg/day, day 1, iv) was 1/7 and the Number of survivals ([7]; 60 mg/kg/day, day 1, iv) was 0/7.
